According to patent US20230024096A1, “BIFUNCTIONAL COMPOUNDS FOR THE TREATMENT OF CANCER” (Hoffmann-La Roche Inc., priority 2019, published 2023):

Biological target: T1, SMARCA2 (Homo sapiens, UniProt P51531)
T1 construct: endogenous in cells; host or cells: HT1080 (CRISPR HiBiT knock-in clone, generated in house)
Assay: SMARCA2 HiBiT degradation assay (cellular)
Assay type: cell-based
Settings: table head names A549; for DC50: 6 h incubation, HiBiT-tagged SMARCA2, luminescence read-out, read-out: HiBit A549 SMARCA2 IP (nM) 6 h; for Emax: A549, 6 h incubation, Emax = amount of residual protein remaining in the cell following compound treatment

T1 sequence (P51531 whole entry): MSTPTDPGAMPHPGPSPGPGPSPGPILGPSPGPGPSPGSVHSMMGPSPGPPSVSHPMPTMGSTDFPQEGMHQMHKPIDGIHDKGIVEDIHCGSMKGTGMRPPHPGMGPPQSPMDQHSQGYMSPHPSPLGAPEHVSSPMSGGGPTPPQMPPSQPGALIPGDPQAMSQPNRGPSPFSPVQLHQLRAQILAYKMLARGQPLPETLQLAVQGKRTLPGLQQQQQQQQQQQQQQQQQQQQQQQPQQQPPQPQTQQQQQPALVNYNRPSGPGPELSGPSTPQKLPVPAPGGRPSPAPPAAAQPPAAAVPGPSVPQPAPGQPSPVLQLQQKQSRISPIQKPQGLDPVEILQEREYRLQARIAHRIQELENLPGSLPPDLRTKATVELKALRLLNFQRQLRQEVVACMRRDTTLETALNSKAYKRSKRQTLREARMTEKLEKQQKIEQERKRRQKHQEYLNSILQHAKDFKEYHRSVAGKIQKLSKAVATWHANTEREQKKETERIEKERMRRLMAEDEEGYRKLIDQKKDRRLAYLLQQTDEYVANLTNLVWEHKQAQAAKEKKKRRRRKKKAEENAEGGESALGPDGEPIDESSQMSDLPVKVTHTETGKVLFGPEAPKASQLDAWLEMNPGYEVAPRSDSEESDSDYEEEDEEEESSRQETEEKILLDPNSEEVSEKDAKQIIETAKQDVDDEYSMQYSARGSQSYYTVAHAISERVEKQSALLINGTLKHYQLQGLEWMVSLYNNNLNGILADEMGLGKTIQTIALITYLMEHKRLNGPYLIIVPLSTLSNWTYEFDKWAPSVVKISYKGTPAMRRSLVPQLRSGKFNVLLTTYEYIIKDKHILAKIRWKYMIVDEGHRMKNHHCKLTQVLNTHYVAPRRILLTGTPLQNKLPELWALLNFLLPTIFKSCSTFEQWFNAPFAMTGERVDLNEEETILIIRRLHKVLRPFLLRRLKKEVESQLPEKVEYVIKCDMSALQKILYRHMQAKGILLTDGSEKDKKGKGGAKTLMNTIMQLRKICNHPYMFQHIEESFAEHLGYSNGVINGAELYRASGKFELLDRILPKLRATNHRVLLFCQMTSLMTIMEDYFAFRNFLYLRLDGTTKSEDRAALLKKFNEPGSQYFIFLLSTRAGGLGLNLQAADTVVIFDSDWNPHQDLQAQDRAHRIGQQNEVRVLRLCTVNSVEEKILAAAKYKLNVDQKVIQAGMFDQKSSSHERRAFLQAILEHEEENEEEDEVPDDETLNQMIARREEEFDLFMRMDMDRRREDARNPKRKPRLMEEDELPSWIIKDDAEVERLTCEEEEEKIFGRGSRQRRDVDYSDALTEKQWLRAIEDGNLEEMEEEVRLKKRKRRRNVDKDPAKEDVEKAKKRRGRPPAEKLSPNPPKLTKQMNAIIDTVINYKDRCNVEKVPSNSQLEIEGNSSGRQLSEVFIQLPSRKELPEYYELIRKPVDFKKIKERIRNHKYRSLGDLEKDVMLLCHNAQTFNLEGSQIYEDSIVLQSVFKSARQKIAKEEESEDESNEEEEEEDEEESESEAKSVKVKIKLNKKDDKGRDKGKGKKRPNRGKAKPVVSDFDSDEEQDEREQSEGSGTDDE

DC50 [nM]	Emax [%]	SMILES
494	65	Nc1nnc(-c2ccccc2O)cc1N1CCC(NC(=O)CC2CCN(C(=O)C3CCN(c4ccc5c(c4)C(=O)N(C4CCC(=O)NC4=O)C5=O)CC3)CC2)(c2ccccc2)CC1 (stereo not drawn) [Example 184, N-[1-[3-amino-6-(2-hydroxyphenyl)pyridazin-4-yl]-4-phenyl-4-piperidyl]-2-[1-[1-[2-(2,6-dioxo-3-piperidyl)-1,3-dioxo-isoindolin-5-yl]piperidine-4-carbonyl]-4-piperidyl]acetamide]
11	27	Nc1nnc(-c2ccccc2O)cc1N1CCC(C(=O)N2CC3(CN(CC4CCN(c5ccc6c(c5)C(=O)N(C5CCC(=O)NC5=O)C6=O)CC4)C3)C2)(c2ccccc2)CC1 (stereo not drawn) [Example 159, 5-(4-((6-(1-(3-amino-6-(2-hydroxyphenyl)pyridazin-4-yl)-4-phenylpiperidine-4-carbonyl)-2,6-diazaspiro[3.3]heptan-2-yl)methyl)piperidin-1-yl)-2-(2,6-dioxopiperidin-3-yl)isoindoline-1,3-dione]
79	37	CC(Nc1cccc2c1C(=O)N(C1CCC(=O)NC1=O)C2=O)c1cn(CCCCCCCCCN2CCN(c3ccc(N4CCC[C@H](Oc5cc(-c6ccccc6O)nnc5N)C4)cc3)CC2)nn1 (mixture of isomers) [Example 201, 2-(2,6-dioxo-3-piperidyl)-4-[1-[1-[9-[4-[4-[rac-(3S)-3-[3-amino-6-(2-hydroxyphenyl)pyridazin-4-yl]oxy-1-piperidyl]phenyl]piperazin-1-yl]nonyl]triazol-4-yl]ethylamino]isoindoline-1,3-dione]
1430	63	Nc1nnc(-c2ccccc2O)cc1N1CCC(CNC(=O)CCNc2cccc3c2C(=O)N(C2CCC(=O)NC2=O)C3=O)(c2ccccc2)CC1 (stereo not drawn) [Example 75, N-((1-(3-amino-6-(2-hydroxyphenyl)pyridazin-4-yl)-4-phenylpiperidin-4-yl)methyl)-3-((2-(2,6-dioxopiperidin-3-yl)-1,3-dioxoisoindolin-4-yl)amino)]
164	63	Nc1nnc(-c2ccccc2O)cc1OC1CCCN(c2ccc(N3CCN(C(=O)CCCCCCCCN4CCN(c5ccc6c(c5)C(=O)N(C5CCC(=O)NC5=O)C6=O)CC4)CC3)cc2)C1 (stereo not drawn) [Example 26, 5-[4-[9-[4-[4-[3-[3-amino-6-(2-hydroxyphenyl)pyridazin-4-yl]oxy-1-piperidyl]phenyl]piperazin-1-yl]-9-oxo-nonyl]piperazin-1-yl]-2-(2,6-dioxo-3-piperidyl)isoindoline-1,3-dione]
272	63	Nc1nnc(-c2ccccc2O)cc1N1CCC(C(=O)NCC2CCN(CC3CCN(c4ccc5c(c4)C(=O)N(C4CCC(=O)NC4=O)C5=O)CC3)CC2)(c2ccccc2)C1 (stereo not drawn) [Example 124, 1-[3-amino-6-(2-hydroxyphenyl)pyridazin-4-yl]-N-[[1-[[l-[2-(2,6-dioxo-3-piperidyl)-1,3-dioxo-isoindolin-5-yl]-4-piperidyl]methyl]-4-piperidyl]methyl]-3-phenyl-pyrrolidine-3-carboxamide]
174	69	Nc1nnc(-c2ccccc2O)cc1N1CCC(C(=O)N2CCC(C(=O)N3CCC(c4ccc(NC5CCC(=O)NC5=O)cn4)CC3)CC2)(c2ccccc2)CC1 (stereo not drawn) [Example 177, 3-((6-(1-(1-(1-(3-amino-6-(2-hydroxyphenyl)pyridazin-4-yl)-4-phenylpiperidine-4-carbonyl)piperidine-4-carbonyl)piperidin-4-yl)pyridin-3-yl)amino)piperidine-2,6-dione]
104	45	CC(Oc1cccc2c1C(=O)N(C1CCC(=O)NC1=O)C2=O)c1cn(CCCN2CCN(C(=O)CCN3CCN(c4ccc(N5CCC[C@H](Oc6cc(-c7ccccc7O)nnc6N)C5)cc4)CC3)CC2)nn1 (mixture of isomers) [Example 200, 2-(2,6-dioxo-3-piperidyl)-4-[1-[1-[3-[4-[3-[4-[4-[rac-(3S)-3-[3-amino-6-(2-hydroxyphenyl)pyridazin-4-yl]oxy-1-piperidyl]phenyl]piperazin-1-yl]propanoyl]piperazin-1-yl]propyl]triazol-4-yl]ethoxy]isoindoline-1,3-dione]
92	63	Nc1nnc(-c2ccccc2O)cc1N1CC(Oc2cccc(CN3CCN(C(=O)CCCCCCNc4cccc5c4C(=O)N(C4CCC(=O)NC4=O)C5=O)CC3)c2)C1 (stereo not drawn) [Example 30, 4-[[7-[4-[[3-[1-[3-amino-6-(2-hydroxyphenyl)pyridazin-4-yl]azetidin-3-yl]oxyphenyl]methyl]piperazin-1-yl]-7-oxo-heptyl]amino]-2-(2,6-dioxo-3-piperidyl)isoindoline-1,3-dione]
607	53	Nc1nnc(-c2ccccc2O)cc1N1CCC(C(=O)N2CCC3(CC2)CN(C(=O)COc2ccc4c(c2)C(=O)N(C2CCC(=O)NC2=O)C4=O)CCO3)(c2ccccc2)CC1 (stereo not drawn) [Example 166, 5-(2-(9-(1-(3-amino-6-(2-hydroxyphenyl)pyridazin-4-yl)-4-phenylpiperidine-4-carbonyl)-1-oxa-4,9-diazaspiro[5.5]undecan-4-yl)-2-oxoethoxy)-2-(2,6-dioxopiperidin-3-yl)isoindoline-1,3-dione]
57	34	Nc1nnc(-c2ccccc2O)cc1N1CCC(C(=O)N2CC3(CCN(CCOC4CCN(c5ccc6c(c5)C(=O)N(C5CCC(=O)NC5=O)C6=O)CC4)C3)C2)(c2ccccc2)CC1 (stereo not drawn) [Example 192, 5-[4-[2-[2-[1-[3-amino-6-(2-hydroxyphenyl)pyridazin-4-yl]-4-phenyl-piperidine-4-carbonyl]-2,7-diazaspiro[3.4]octan-7-yl]ethoxy]-1-piperidyl]-2-(2,6-dioxo-3-piperidyl)isoindoline-1,3-dione]
550	53	Nc1nnc(-c2ccccc2O)cc1N1CCC2(CC1)CN(C(=O)CCC1CCN(c3cccc4c3C(=O)N(C3CCC(=O)NC3=O)C4=O)CC1)CCO2 (stereo not drawn) [Example 2, 4-[4-[3-[9-[3-amino-6-(2-hydroxyphenyl)pyridazin-4-yl]-1-oxa-4,9-diazaspiro[5.5]undecan-4-yl]-3-oxo-propyl]-1-piperidyl]-2-(2,6-dioxo-3-piperidyl)isoindoline-1,3-dione]

SMILES	DC50 [nM]	Emax [%]
Nc1nnc(-c2ccccc2O)cc1N1CC2CCC(C1)N2c1cccc(OCCN2CCN(C(=O)N3CCC(Oc4cccc5c4C(=O)N(C4CCC(=O)NC4=O)C5=O)CC3)CC2)c1 (racemic) [Example 41, rac-4-[[1-[4-[2-[3-[3-[3-amino-6-(2-hydroxyphenyl)pyridazin-4-yl]-3,8-diazabicyclo[3.2.1]octan-8-yl]phenoxy]ethyl]piperazine-1-carbonyl]-4-piperidyl]oxy]-2-(2,6-dioxo-3-piperidyl)isoindoline-1,3-dione]	46	48
Nc1nnc(-c2ccccc2O)cc1N1CC2CCC(C1)N2c1cccc(OCCN2CCN(C(=O)CCCCCCCNc3cccc4c3C(=O)N(C3CCC(=O)NC3=O)C4=O)CC2)c1 (racemic) [Example 11, rac-4-[[8-[4-[2-[3-[3-[3-amino-6-(2-hydroxyphenyl)pyridazin-4-yl]-3,8-diazabicyclo[3.2.1]octan-8-yl]phenoxy]ethyl]piperazin-1-yl]-8-oxo-octyl]amino]-2-(2,6-dioxo-3-piperidyl)isoindoline-1,3-dione]	146	64
Nc1nnc(-c2ccccc2O)cc1N1CC2CCC(C1)N2c1cccc(CN2CCN(C(=O)CCC3CCN(c4ccc5c(c4)C(=O)N(C4CCC(=O)NC4=O)C5=O)CC3)CC2)c1 (racemic) [Example 47, rac-5-[4-[3-[4-[[3-[3-[3-Amino-6-(2-hydroxyphenyl)pyridazin-4-yl]-3,8-diazabicyclo[3.2.1]octan-8-yl]phenyl]methyl]piperazin-1-yl]-3-oxo-propyl]-1-piperidyl]-2-(2,6-dioxo-3-piperidyl)isoindoline-1,3-dione]	17	42
Nc1nnc(-c2ccccc2O)cc1N1CC2CCC(C1)N2c1cccc(OC2CCN(C(=O)CN3CCC(c4ccc(NC5CCC(=O)NC5=O)cc4)CC3)CC2)c1 (racemic) [Example 114, rac-3-[4-[1-[2-[4-[3-[3-[3-amino-6-(2-hydroxyphenyl)pyridazin-4-yl]-3,8-diazabicyclo[3.2.1]octan-8-yl]phenoxy]-1-piperidyl]-2-oxo-ethyl]-4-piperidyl]anilino]piperidine-2,6-dione]	82	40
Nc1nnc(-c2ccccc2O)cc1N1CC2CCC(C1)N2c1cccc(OCCN2CCN(C(=O)N3CCC(c4ccc(NC5CCC(=O)NC5=O)cc4)CC3)CC2)c1 (racemic) [Example 80, rac-3-[4-[1-[4-[2-[3-[3-[3-amino-6-(2-hydroxyphenyl)pyridazin-4-yl]-3,8-diazabicyclo[3.2.1]octan-8-yl]phenoxy]ethyl]piperazine-1-carbonyl]-4-piperidyl]anilino]piperidine-2,6-dione]	11	51
Nc1nnc(-c2ccccc2O)cc1N1CC2CCC(C1)N2c1cccc(OCCN2CCN(C(=O)N3CCN(c4ccc(OC5CCC(=O)NC5=O)cc4)CC3)CC2)c1 (racemic) [Example 51, rac-3-[4-[4-[4-[2-[3-[3-[3-amino-6-(2-hydroxyphenyl)pyridazin-4-yl]-3,8-diazabicyclo[3.2.1]octan-8-yl]phenoxy]ethyl]piperazine-1-carbonyl]piperazin-1-yl]phenoxy]piperidine-2,6-dione]	86	54
